The values that follow come from US20240067693A1, “POLYPEPTIDES AND USES THEREOF” (MEDIMMUNE LIMITED, priority 2020, published 2024).

The target of assay [1] is T1, human amylin receptor (calcitonin receptor co-expressed with receptor activity modifying protein, RAMP3) (hAMYR3) (Homo sapiens, UniProt O60896+P30988).
T1 construct: expressed in transfected cells
T1 sequence (P30988 25-474): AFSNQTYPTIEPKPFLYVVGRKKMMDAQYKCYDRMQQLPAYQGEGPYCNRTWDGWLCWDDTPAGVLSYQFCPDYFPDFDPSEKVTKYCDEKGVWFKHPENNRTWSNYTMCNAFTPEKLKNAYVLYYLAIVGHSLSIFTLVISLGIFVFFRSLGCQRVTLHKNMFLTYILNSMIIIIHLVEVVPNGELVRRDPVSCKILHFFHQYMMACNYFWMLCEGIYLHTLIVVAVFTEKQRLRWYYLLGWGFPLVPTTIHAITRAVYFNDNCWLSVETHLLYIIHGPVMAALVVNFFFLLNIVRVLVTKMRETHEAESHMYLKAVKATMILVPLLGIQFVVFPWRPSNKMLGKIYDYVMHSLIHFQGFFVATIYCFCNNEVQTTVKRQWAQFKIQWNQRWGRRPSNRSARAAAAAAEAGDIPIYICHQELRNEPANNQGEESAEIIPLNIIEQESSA
T1 sequence (O60896 24-148 partner): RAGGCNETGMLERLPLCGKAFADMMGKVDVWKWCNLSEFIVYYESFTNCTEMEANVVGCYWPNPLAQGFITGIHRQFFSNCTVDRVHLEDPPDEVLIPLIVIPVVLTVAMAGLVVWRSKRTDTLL
The assay can be described thus: cAMP production in 1321N1 cells with stable recombinant expression of human amylin receptor (hAMYR3). It is filed as cell-based. The conditions noted are these: for Ratio (selectivity hAMYR vs hCTR, ratio of EC50 values at the two receptors): EC50 hCTR / EC50 hAMYR3; for EC50: cAMP, 1321N1 cells, assay buffer with 0.1% BSA, read-out: EC50 (pM) hAMYR3. The procedure, abridged: (§1)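 Receptor-expressing cells (human receptors in 1321N1, rat receptors in HEK) incubated 30 min at room temperature with peptide in HBSS/HEPES pH 7.4, 0.1% BSA, 0.5 mM IBMX. cAMP read by HTRF; EC50 from 4-parameter fit as % of maximal amylin or calcitonin response.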

For assay [2], the target named is T2, human calcitonin receptor (hCTR) (Homo sapiens, UniProt P30988).
T2 construct: expressed in transfected cells
T2 sequence (P30988 25-474): T1 sequence (P30988 25-474)
The assay can be described thus: cAMP production in 1321N1 cells with stable recombinant expression of human calcitonin receptor (hCTR). It counts as cell-based. The note with it: cAMP, 1321N1 cells, assay buffer with 0.1% BSA; read-out: EC50 (pM) hCTR. Summed up: as §1
(In general: cAMP levels reflect the balance of adenylyl cyclase and phosphodiesterase activity.)

The structures appear in SMILES notation. Numbered stars: 1 amine (or outer) side, 2 acyl side, 3 side chain; on linkers, the order of the positions; unused ones are H or OH. Bridge positions count the residues as written; N and C are the ends. Square brackets hold non-standard residues; d marks the D form. Side chains are listed from the residue outwards. Peptide text beside a SMILES is read from it. * marks the point of attachment. C20 diacid = O=C(O)CCCCCCCCCCCCCCCCCCC(=O)*; C18 diacid = O=C(O)CCCCCCCCCCCCCCCCC(=O)*; γGlu = O=C(O)[C@H](CCC(=O)[*:2])N[*:1]; Aib = CC(C)(N)C(=O)O

Broadly, the EC50 is the concentration giving half of the maximal effect. As to `CC[C@H](C)[C@H](NC(=O)[C@@H]1CCCN1C(=O)CNC(=O)[C@H](Cc1ccccc1)NC(=O)[C@H](CC(N)=O)NC(=O)C(C)(C)NC(=O)[C@H](CO)NC(=O)[C@H](CO)NC(=O)[C@H](Cc1c[nH]cn1)NC(=O)[C@@H](NC(=O)[C@H](CC(C)C)NC(=O)[C@H](Cc1ccccc1)NC(=O)[C@H](CC(N)=O)NC(=O)[C@H](C)NC(=O)[C@H](CC(C)C)NC(=O)[C@H](CCCNC(=N)N)NC(=O)[C@H](CCC(N)=O)NC(=O)[C@@H](NC(=O)[C@H](C)NC(=O)[C@@H]1CSSC[C@H](NC(=O)[C@H](CCCCN)NC(=O)[C@@H](N)CCCCNC(=O)CC[C@H](NC(=O)CCCCCCCCCCCCCCCCC(=O)O)C(=O)O)C(=O)N[C@@H](CC(N)=O)C(=O)N[C@@H]([C@@H](C)O)C(=O)N[C@@H](C)C(=O)N[C@@H]([C@@H](C)O)C(=O)N1)[C@@H](C)O)C(C)C)C(=O)NC(C)(C)C(=O)N1CCC[C@H]1C(=O)N1CCC[C@H]1C(=O)N[C@H](C(=O)N[C@@H](CC(N)=O)C(=O)N[C@H](C(=O)NCC(=O)N[C@@H](CO)C(=O)N[C@@H](CC(N)=O)C(=O)N[C@H](C(=O)N[C@@H](Cc1ccc(O)cc1)C(N)=O)[C@@H](C)O)C(C)C)[C@@H](C)O` [Peptide 79, K(γE-C18diacid)K[CNTATC]ATQRLANFLVHSS(Aib)NFGPI(Aib)PPTNVGSNTY-amide] (H-K([γGlu-C18 diacid])KCNTATCATQRLANFLVHSS[Aib]NFGPI[Aib]PPTNVGSNTY-NH2; disulfide 3-8), in assay [1], the “Ratio (selectivity hAMYR vs hCTR, ratio of EC50 values at the two receptors)” value came to 7 and the EC50 stood at 659 pM. The half-maximal effective concentration (EC50) in assay [2] is 4800 pM.

Consider `CC[C@H](C)[C@H](NC(=O)[C@@H]1CCCN1C(=O)CNC(=O)[C@H](Cc1ccccc1)NC(=O)[C@H](CC(N)=O)NC(=O)C(C)(C)NC(=O)[C@H](CO)NC(=O)[C@H](CO)NC(=O)[C@H](Cc1c[nH]cn1)NC(=O)[C@@H](NC(=O)[C@H](CC(C)C)NC(=O)[C@H](Cc1ccccc1)NC(=O)[C@H](CC(N)=O)NC(=O)[C@H](C)NC(=O)[C@H](CC(C)C)NC(=O)[C@H](CCCNC(=N)N)NC(=O)[C@H](CCC(N)=O)NC(=O)[C@@H](NC(=O)[C@H](C)NC(=O)[C@@H]1CSSC[C@H](NC(=O)[C@H](CCCCN)NC(=O)[C@@H](N)CCCCNC(=O)CC[C@H](NC(=O)CCCCCCCCCCCCCCCCC(=O)O)C(=O)O)C(=O)N[C@@H](CC(N)=O)C(=O)N[C@@H]([C@@H](C)O)C(=O)N[C@@H](C)C(=O)N[C@@H]([C@@H](C)O)C(=O)N1)[C@@H](C)O)C(C)C)C(=O)N[C@@H](CC(C)C)C(=O)N1CCC[C@H]1C(=O)N1CCC[C@H]1C(=O)N[C@H](C(=O)N[C@@H](CC(N)=O)C(=O)N[C@H](C(=O)NCC(=O)N[C@@H](CO)C(=O)N[C@@H](CCCNC(=N)N)C(=O)N[C@H](C(=O)N[C@@H](Cc1ccc(O)cc1)C(N)=O)[C@@H](C)O)C(C)C)[C@@H](C)O` [Peptide 73, K(γE-C18diacid)K[CNTATC]ATQRLANFLVHSS(Aib)NFGPILPPTNVGSRTY-amide] (H-K([γGlu-C18 diacid])KCNTATCATQRLANFLVHSS[Aib]NFGPILPPTNVGSRTY-NH2; disulfide 3-8; N-terminus assumed), for which the “Ratio (selectivity hAMYR vs hCTR, ratio of EC50 values at the two receptors)” value in assay [1] was 7. In addition, the values for the concentration for a half-maximal effect (EC50) in assay [1] and in assay [2] were 256 pM and 1820 pM, respectively.

Turning to `CC[C@H](C)[C@H](NC(=O)[C@H](C)NC(=O)[C@@H]1CCCN1C(=O)[C@H](Cc1ccccc1)NC(=O)[C@H](CC(N)=O)NC(=O)[C@@H]1CCCN1C(=O)[C@@H]1CCCN1C(=O)[C@H](CO)NC(=O)[C@H](Cc1c[nH]cn1)NC(=O)[C@@H](NC(=O)[C@H](CC(C)C)NC(=O)[C@H](Cc1ccccc1)NC(=O)[C@H](CC(N)=O)NC(=O)[C@H](C)NC(=O)[C@H](CC(C)C)NC(=O)[C@H](CCCNC(=N)N)NC(=O)[C@H](CCC(N)=O)NC(=O)[C@@H](NC(=O)[C@H](C)NC(=O)[C@@H]1CSSC[C@H](NC(=O)[C@@H](N)CCCCNC(=O)CC[C@H](NC(=O)CC[C@H](NC(=O)CCCCCCCCCCCCCCCCCCC(=O)O)C(=O)O)C(=O)O)C(=O)N[C@@H](CC(N)=O)C(=O)N[C@@H]([C@@H](C)O)C(=O)N[C@@H](C)C(=O)N[C@@H]([C@@H](C)O)C(=O)N1)[C@@H](C)O)C(C)C)C(=O)N[C@@H](CC(C)C)C(=O)N[C@@H](CO)C(=O)N1CCC[C@H]1C(=O)N[C@H](C(=O)N[C@@H](CC(N)=O)C(=O)N[C@H](C(=O)NCC(=O)N[C@@H](CO)C(=O)N[C@@H](CC(N)=O)C(=O)N[C@H](C(=O)N[C@@H](Cc1ccc(O)cc1)C(N)=O)[C@@H](C)O)C(C)C)[C@@H](C)O` [Peptide 119] (H-K([γGlu-γGlu-C20 diacid])CNTATCATQRLANFLVHSPPNFPAILSPTNVGSNTY-NH2; disulfide 2-7; N-terminus assumed), the “Ratio (selectivity hAMYR vs hCTR, ratio of EC50 values at the two receptors)” value in assay [1] is 24. Also, the EC50 in assay [1] was determined as 1460 pM; in assay [2], 34700 pM.

As to `CC[C@H](C)[C@H](NC(=O)[C@@H]1CCCN1C(=O)CNC(=O)[C@H](Cc1ccccc1)NC(=O)[C@H](CC(N)=O)NC(=O)C(C)(C)NC(=O)[C@H](CO)NC(=O)[C@H](CO)NC(=O)[C@H](Cc1c[nH]cn1)NC(=O)[C@H](CO)NC(=O)[C@H](CC(C)C)NC(=O)[C@H](Cc1ccccc1)NC(=O)[C@H](CC(N)=O)NC(=O)[C@H](C)NC(=O)[C@H](CC(C)C)NC(=O)[C@H](CCCNC(=N)N)NC(=O)[C@H](CCC(N)=O)NC(=O)[C@@H](NC(=O)[C@H](C)NC(=O)[C@@H]1CSSC[C@H](NC(=O)[C@H](CCCCN)NC(=O)[C@@H](N)CCCCNC(=O)CC[C@H](NC(=O)CCCCCCCCCCCCCCCCC(=O)O)C(=O)O)C(=O)N[C@@H](CC(N)=O)C(=O)N[C@@H]([C@@H](C)O)C(=O)N[C@@H](C)C(=O)N[C@@H]([C@@H](C)O)C(=O)N1)[C@@H](C)O)C(=O)N[C@@H](CC(C)C)C(=O)N1CCC[C@H]1C(=O)N1CCC[C@H]1C(=O)N[C@H](C(=O)N[C@@H](Cc1c[nH]cn1)C(=O)N[C@H](C(=O)NCC(=O)N[C@@H](CO)C(=O)N[C@@H](CC(N)=O)C(=O)N[C@H](C(=O)N[C@@H](Cc1ccc(O)cc1)C(N)=O)[C@@H](C)O)C(C)C)[C@@H](C)O` [Peptide 51, K(γE-C18diacid)K[CNTATC]ATQRLANFLSHSS(Aib)NFGPILPPTHVGSNTY-amide] (H-K([γGlu-C18 diacid])KCNTATCATQRLANFLSHSS[Aib]NFGPILPPTHVGSNTY-NH2; disulfide 3-8; N-terminus assumed), in assay [1], the “Ratio (selectivity hAMYR vs hCTR, ratio of EC50 values at the two receptors)” value was determined as 13 and the EC50 was 126 pM. In addition, the EC50 in assay [2] amounted to 1640 pM.

For `CC[C@H](C)[C@H](NC(=O)[C@@H]1CCCN1C(=O)CNC(=O)[C@H](Cc1ccccc1)NC(=O)[C@H](Cc1c[nH]cn1)NC(=O)[C@H](CC(N)=O)NC(=O)[C@H](CO)NC(=O)[C@H](CO)NC(=O)[C@H](Cc1c[nH]cn1)NC(=O)[C@@H](NC(=O)[C@H](CC(C)C)NC(=O)[C@H](Cc1ccccc1)NC(=O)[C@H](CC(N)=O)NC(=O)[C@H](C)NC(=O)[C@H](CC(C)C)NC(=O)[C@H](CCCNC(=N)N)NC(=O)[C@H](CCC(N)=O)NC(=O)[C@@H](NC(=O)[C@H](C)NC(=O)[C@@H]1CSSC[C@H](NC(=O)[C@H](CCCCN)NC(=O)[C@@H](N)CCCCNC(=O)CC[C@H](NC(=O)CCCCCCCCCCCCCCCCC(=O)O)C(=O)O)C(=O)N[C@@H](CC(N)=O)C(=O)N[C@@H]([C@@H](C)O)C(=O)N[C@@H](C)C(=O)N[C@@H]([C@@H](C)O)C(=O)N1)[C@@H](C)O)C(C)C)C(=O)N[C@@H](CC(C)C)C(=O)N1CCC[C@H]1C(=O)N1CCC[C@H]1C(=O)N[C@H](C(=O)N[C@@H](CC(N)=O)C(=O)N[C@H](C(=O)NCC(=O)N[C@@H](CO)C(=O)N[C@@H](CCC(=O)O)C(=O)N[C@H](C(=O)N[C@@H](Cc1ccc(O)cc1)C(N)=O)[C@@H](C)O)C(C)C)[C@@H](C)O` [Peptide 111] (H-K([γGlu-C18 diacid])KCNTATCATQRLANFLVHSSNHFGPILPPTNVGSETY-NH2; disulfide 3-8; N-terminus assumed), in assay [1], the “Ratio (selectivity hAMYR vs hCTR, ratio of EC50 values at the two receptors)” value stood at 5 and the EC50 came out at 403 pM. Also, in assay [2], the concentration for a half-maximal effect (EC50) was 1880 pM.
